# Results from article PMC5148682 (European journal of medicinal chemistry, 2016).
# pIC50: −log10 of the molar value.
# Experiments:
# E. coli topoisomerase I = E. coli topoisomerase I (Escherichia coli, UniProt P06612); assay: E. coli topoisomerase I relaxation activity inhibition assay; assay type: biochemical
# Human topoisomerase I = biological target: T1, Human topoisomerase I (Homo sapiens, UniProt P11387); assay: Human topoisomerase I relaxation inhibition assay; assay type: biochemical
# T1 sequence (P11387 1-765): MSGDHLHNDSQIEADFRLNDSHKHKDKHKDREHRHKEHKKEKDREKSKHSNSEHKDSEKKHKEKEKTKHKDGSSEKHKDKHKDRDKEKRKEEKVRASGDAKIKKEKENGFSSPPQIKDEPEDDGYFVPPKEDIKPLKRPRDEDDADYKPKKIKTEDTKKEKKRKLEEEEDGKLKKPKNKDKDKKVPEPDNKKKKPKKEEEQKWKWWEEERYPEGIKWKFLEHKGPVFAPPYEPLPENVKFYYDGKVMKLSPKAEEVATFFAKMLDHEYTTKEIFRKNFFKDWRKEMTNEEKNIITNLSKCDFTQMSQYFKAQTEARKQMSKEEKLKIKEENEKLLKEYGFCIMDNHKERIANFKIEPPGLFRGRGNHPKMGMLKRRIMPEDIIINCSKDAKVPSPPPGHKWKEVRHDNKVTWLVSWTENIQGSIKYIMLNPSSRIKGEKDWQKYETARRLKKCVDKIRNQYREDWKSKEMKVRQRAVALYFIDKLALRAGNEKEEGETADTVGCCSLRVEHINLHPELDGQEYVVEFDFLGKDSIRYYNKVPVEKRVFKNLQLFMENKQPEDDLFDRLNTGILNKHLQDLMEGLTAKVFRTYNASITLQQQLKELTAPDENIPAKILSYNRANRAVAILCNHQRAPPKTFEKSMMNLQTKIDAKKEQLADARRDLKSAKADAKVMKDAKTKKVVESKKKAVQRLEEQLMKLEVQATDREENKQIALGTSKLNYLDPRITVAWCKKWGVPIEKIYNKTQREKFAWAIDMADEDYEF
# M tuberculosis (H37Rv) = assay: MIC by modified microplate Alamar blue assay; assay type: cell-based
# E. coli (MG1655) WT = assay: MIC by broth microdilution, wild-type E. coli; details: Escherichia coli, MG1655, read-out: Whole cell based antibacterial activity (MIC, µM) E. coli (MG1655) WT
# E. coli topoisomerase I, sequence (P06612 whole entry): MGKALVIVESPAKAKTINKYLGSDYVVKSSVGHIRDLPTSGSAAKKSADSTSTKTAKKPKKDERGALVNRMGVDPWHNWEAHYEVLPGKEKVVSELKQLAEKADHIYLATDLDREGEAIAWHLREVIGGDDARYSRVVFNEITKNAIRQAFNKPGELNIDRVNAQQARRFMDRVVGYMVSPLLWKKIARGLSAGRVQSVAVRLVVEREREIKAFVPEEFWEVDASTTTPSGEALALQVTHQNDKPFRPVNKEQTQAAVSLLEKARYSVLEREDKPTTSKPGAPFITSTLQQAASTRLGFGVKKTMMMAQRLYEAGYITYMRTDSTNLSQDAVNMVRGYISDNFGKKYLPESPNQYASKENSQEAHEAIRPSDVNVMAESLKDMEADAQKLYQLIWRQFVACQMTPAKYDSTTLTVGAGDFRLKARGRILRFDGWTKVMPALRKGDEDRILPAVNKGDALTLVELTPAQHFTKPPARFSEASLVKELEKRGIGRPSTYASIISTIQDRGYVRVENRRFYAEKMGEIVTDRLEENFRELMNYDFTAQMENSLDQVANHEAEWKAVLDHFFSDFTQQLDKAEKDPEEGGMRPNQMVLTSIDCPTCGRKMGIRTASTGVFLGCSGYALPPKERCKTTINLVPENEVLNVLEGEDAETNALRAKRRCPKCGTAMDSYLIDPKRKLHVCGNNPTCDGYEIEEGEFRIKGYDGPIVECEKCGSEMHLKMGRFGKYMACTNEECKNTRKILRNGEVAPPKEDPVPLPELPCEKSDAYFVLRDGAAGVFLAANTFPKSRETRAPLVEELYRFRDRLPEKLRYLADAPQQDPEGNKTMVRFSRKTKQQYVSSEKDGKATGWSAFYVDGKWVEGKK
compound,measurement,setting,value
"CCOC(=O)c1cn2c3c(c(F)c(F)cc3c1=O)Oc1cc(C(F)(F)F)ccc1-2 [Compound 6c, Ethyl 5,6-difluoro-3-oxo-9-(trifluoromethyl)-3H–pyrido[3,2,1-kl]phenoxazine-2-carboxylate]",pIC50,"E. coli topoisomerase I; pIC50, experimental, pIC50 = – logIC50, E. coli topoisomerase I",< 3.90
"O=C(O)c1cn2c3c(c(F)c(F)cc3c1=O)Oc1cc(C(F)(F)F)ccc1-2 [Compound 7c, 5,6-Difluoro-3-oxo-9-(trifluoromethyl)-3H–pyrido[3,2,1-kl]phenoxazine-2-carboxylic acid]",IC50,"E. coli topoisomerase I; IC50 (µM), E. coli topoisomerase I, value as used in the CoMFA dataset (Table 2)",> 125 µM
"CC(=O)c1ccc2c(c1)Oc1c(F)c(F)cc3c(=O)c(C(=O)O)cn-2c13 [Compound 7d, 9-Acetyl-5,6-difluoro-3-oxo-3H–pyrido[3,2,1-kl] phenoxazine-2-carboxylic acid]",fold less active than 1 against E. coli topoisomerase I,E. coli topoisomerase I,8–16 fold
"O=C(O)c1cn2c3c(c(F)c(F)cc3c1=O)Oc1cc([N+](=O)[O-])c(Cl)cc1-2 [Compound 7e, 10-Chloro-5,6-difluoro-9-nitro-3-oxo-3H–pyrido[3,2,1-kl]phenoxazine-2-carboxylic acid]",fold less active than 1 against E. coli topoisomerase I,E. coli topoisomerase I,8–16 fold
"Nc1ccc2c(c1)Oc1c(NCCN3CCOCC3)c(F)cc3c(=O)c(C(=O)O)cn-2c13 [Compound 11h, 9-Amino-5-fluoro-6-((2-morpholinoethyl)amino)-3-oxo-3H–pyrido[3,2,1-kl]phenoxazine-2-carboxylic acid]",pIC50,Human topoisomerase I,4.81 to 5.11
"Nc1ccc2c(c1)Oc1c(N3CC[C@H](N)C3)c(F)cc3c(=O)c(C(=O)O)cn-2c13 [Compound 17a, (S)-9-amino-6-(3-aminopyrrolidin-1-yl)-5-fluoro-3-oxo-3H–pyrido[3,2,1-kl]phenoxazine-2-carboxylic acid]","Whole cell based antibacterial activity (MIC, µM) M tuberculosis (H37Rv)",M tuberculosis (H37Rv); MABA,>63.1 µM
same,MIC,"M tuberculosis (H37Rv); Mycobacterium tuberculosis, H37RV, read-out: Whole cell based antibacterial activity (MIC, µM) M tuberculosis (H37Rv)",> 63.1 µM
"Nc1ccc2c(c1)Oc1c(N3CC[C@@H](N)C3)c(F)cc3c(=O)c(C(=O)O)cn-2c13 [Compound 17b, (R)-9-amino-6-(3-aminopyrrolidin-1-yl)-5-fluoro-3-oxo-3H–pyrido[3,2,1-kl]phenoxazine-2-carboxylic acid]",MIC,E. coli (MG1655) WT,> 200 µM
